Melting point data for 89 compounds are collected here from a melting point compilation (Tetko et al.; mined from patent text by program, amines drawn as free bases though some values may be those of a salt).

Broadly, the melting point is the temperature, or range, at which the solid turns liquid. In the case of `O=CNc1ccc(OCCNCC(O)c2ccc(O)cc2)cc1` (centres undefined), the melting point was 164 to 165 °C. Turning to `CCOC(=O)c1cc(-c2ccc(Cl)cc2)cnc1C(F)(F)F`, the melting point lay within 84 to 85 °C. The compound `CCCCC1(N(C)C)CCC(c2[nH]c3ccccc3c2C)(c2[nH]c3ccccc3c2CCNC(=O)Nc2ccccc2)CC1` (centres undefined) returned a melting point of 115 to 120 °C. As for `CCn1nc(C)c2c1C(=NC#N)NCC(c1ccc(O)cc1)=N2`, the figure is 300 °C.

`CC(C)S(=O)(=O)Nc1ccc2c(=O)c3c(sc2c1)CC(C)(C)CC3`: the melting point was 263 °C. Compound `CCOC(=O)C(=O)c1c[nH]c2cc(OC)ccc12` showed a melting point of 207 to 208 °C. `CCOC(=O)/C=C/c1c(-c2ccccc2)c2c3ccccc3cnn2c1C(C)C` displayed a melting point of 158 to 159 °C. The figure for `O=C1CCC(c2ccc(-c3ccc([N+](=O)[O-])cc3F)cc2)O1` (centres undefined) is 94 °C; for `CC(NC(=O)c1cccc([N+](=O)[O-])c1)C(F)(F)F` (centres undefined) it is 130 to 131 °C.

Turning to `Cn1ncc2nc3c(c(O)c21)CCCC3`, the melting point is above 300 °C. On to `Cc1ccc(CNC(=O)c2ccc3n2Cc2ccccc2N(C(=O)CSc2ccc(Br)cc2)C3)cc1`, for which the melting point lay within 131 to 132 °C. The figure for `OCCCOc1ccc(Cl)c(Cl)c1` is 40 to 43 °C. Compound `COc1ccc(NC(=O)C(=O)c2c3n(c4ccccc24)CCNCC3)cc1Cl` displayed a melting point of 221 to 223 °C. For the compound `COC(=O)C(c1ccccc1)C(c1ccc(OC)cc1)n1cncn1` (centres undefined), the melting point lay within 159 to 161 °C. `O=S(=O)(Br)c1ccc(Cl)s1` came in with a melting point of 35 to 37 °C. Compound `CCCn1c(COC)nc2c(N)nc3ccc(OCCCN4CCN(c5ccccn5)CC4)cc3c21` came in with a melting point of 196 to 197 °C.

`CCCCc1ncc(C(=O)OCC)c(N(C)Cc2ccc(-c3ccccc3-c3nnn[nH]3)cc2)n1` registered a melting point of 159 to 161 °C.

With `CN(C)c1cc2nc(C(C)(C)C)sc2cc1NC(N)=S`, the melting point was in the range of 275 to 280 °C.

In turn, `CC(=O)C(=Cc1ccc(S(C)(=O)=O)cc1)C(C)=O` showed a melting point of 139 to 140 °C.

On to `O=C(Nc1ccc(N2CCCCC2)cc1)N(C[C@H]1CC[C@H](CN(C(=O)Nc2ccc(N3CCCCC3)cc2)C2CCCCC2)CC1)C1CCCCC1`, for which the melting point was 174 to 178 °C. Consider `CCCCc1nc(C(F)(F)F)c(CO)n1Cc1ccc(-c2ccccc2C(=O)O)cc1`, for which the melting point lay in the range of 198 to 200 °C. Compound `CN(C)C(=O)c1ccc(CN(C)C(=O)C23CC4CC(CC(C4)C2)C3)s1` had a melting point of 145 to 146 °C. As to `CN1C(=O)CSC1c1cccnc1` (centres undefined), the melting point was in the range of 96.5 to 97.5 °C.

On to `Cc1oc(-c2ccccc2)nc1COc1ccc(COc2nn(-c3ccccc3)cc2/C=C/C(=O)O)cc1`, for which the melting point lay within 186 to 187 °C. Take `CCc1c([N+](=O)[O-])ccc2cc[nH]c12`: the melting point is 50 °C. For `CCc1noc(-c2cn(-c3ccc(OC)c(OC)c3)cn2)n1`, the melting point turned out to be 143 °C.

In turn, `Cc1cccc(C)c1N(CC(=O)NCCC(=O)O)C(=O)c1ccc(Cl)cc1` displayed a melting point of 154 to 156 °C. `O=C(C=C(c1ccccc1Cl)n1cncn1)c1ccccc1` registered a melting point of 79 to 81 °C. As for `COCc1ccc(CCCOc2c(C)cc(-c3noc(C(F)(F)F)n3)cc2C)cn1`, the figure is 50 to 53 °C; as for `CCN(CCOc1ccc(NC(=O)c2cccc3c(=O)c4ccccc4[nH]c23)cc1)Cc1ccccc1`, 157 °C; as for `CCOC(=O)c1c(-c2ccncc2)[nH]c(-c2ccccc2)c1C`, 179 to 181 °C.

The compound `CC1CC(C)C(C)(C)c2ccc(-c3cccc(-c4ccc(C(=O)O)cc4)c3O)cc21` (centres undefined) gave a melting point of 121 °C. In turn, `[N-]=[N+]=NCC1Cc2c[nH]c3cccc(c23)C(=O)N1` (centres undefined) had a melting point of 152 to 153 °C. Regarding `CCOC(=O)N(c1cccc(C(F)(F)F)c1)c1ccccc1[N+](=O)[O-]`, the melting point lay within 45 to 48 °C. `CN(Cc1cc(C(F)(F)F)cc(C(F)(F)F)c1)C(=O)c1c(-c2ccc(F)cc2)c2c(c(=O)n1C)CCCN2C`: the melting point lay in the range of 230 to 232 °C. On to `c1ccc(COc2ccc(-c3nc4cccc(OCc5ccccc5)c4[nH]3)cc2C23CC4CC(CC(C4)C2)C3)cc1`, for which the melting point is 109 to 111 °C. Compound `CCn1c(=O)c(C(=O)NN)c(O)c2ccc(C)nc21` registered a melting point of 211 to 213 °C. Compound `COc1cccc(C=NNc2ncc(COc3cccc(C(=O)Nc4ccc(C(C)C)c(C)c4)c3)c3ccccc23)c1` came in with a melting point of 125 to 129 °C. The compound `O=C(O)C(c1ccccc1)N1C(=O)c2ccccc2C1=O` (centres undefined) registered a melting point of 175 to 177 °C.

Take `CCOc1ccc2c(=O)cc(-c3ccccc3O)oc2c1`: the melting point was in the range of 295 to 297 °C.

`Nc1cc(=O)n(Cc2ccccc2Cl)[nH]1`: the melting point is 153 °C. As for `COc1ccc(-c2coc3ccc(-c4nnc(C)o4)cc23)cc1F`, the melting point was in the range of 159 to 160 °C. As for `COC(=O)c1ccc(Cn2c(C(F)(F)F)nc3cc(C)c(C)cc32)cc1`, the figure is 150 to 152 °C.

`Cc1nc(NC(=O)C2=C(O)c3ccc4ccccc4c3S(=O)(=O)N2C)sc1C` gave a melting point of 264 to 265 °C. The figure for `FC(F)(F)c1cccc(CNc2ncnc3ccccc23)c1` is 145 to 146 °C; for `Cc1nc(N)c2nc(CO)n(CC(C)C)c2c1C` it is 231 to 234 °C.

Compound `CC(C)(C)CNc1nc(Nc2cccc(NS(C)(=O)=O)c2)nc2[nH]cnc12` had a melting point of 270 to 273 °C. `CC(C)c1nc(-c2ncn3c2C(C)(C)N(C(=O)N2CCCC2)c2cc(F)ccc2-3)no1`: the melting point fell in the range of 154 to 156 °C.

Compound `CC(C)(C)OC(=O)NC(=O)C(c1ccccc1)c1ccccc1` registered a melting point of 160 to 162 °C. The figure for `CCOC(=O)CN(Cc1ccccc1Cl)c1ccc(C(O)(C(F)(F)F)C(F)(F)F)cc1` is 146 °C; for `CN(C)C(=O)c1nc(-c2ccccc2)nc2c1c1ccc(F)cc1n2C` it is 229 to 231 °C; for `O=C(O)C1CCN(c2cc(-c3ccc(Cl)cc3)nc3ccccc23)CC1` it is 245 to 247 °C. Regarding `Cc1c(C)c2c(c(C)c1NC(=O)C(C)(C)C)C(c1ccc(C(C)C)cc1)CO2` (centres undefined), the melting point lay within 177 to 178 °C. Compound `C#Cc1c(N)nc(-c2ccc(Cl)c(OC)c2F)nc1C(=O)OC` came in with a melting point of 174 to 176 °C. In turn, `CCCc1[nH]c2cc(C(N)=O)ccc2c1C(=O)C1CCCCC1` gave a melting point of 245 to 247 °C.

In the case of `CNc1nc(C(C)c2ccc(-c3ccccc3)c(F)c2)cs1` (centres undefined), the melting point lay in the range of 144 to 145 °C. Take `Nc1ccc(C(=O)Nc2ccc(Cl)nc2)cc1F`: the melting point worked out at 193 °C. `CS(=O)(=O)Oc1ccccc1CC(=O)O` gave a melting point of 110 °C.

For the compound `CCCCCCCCCCCCCCCCCC(=O)OC1CC(C)(C)N(OC(C)=O)C(CC)(CC)C1` (centres undefined), the melting point is 41 to 44 °C. `Cc1cc(C)c(S(=O)(=O)Nc2onc(C)c2Br)c(C)c1` came in with a melting point of 92 to 95 °C. `CCOC(=O)COc1cccc2c1CCC(Br)C2=O` (centres undefined) returned a melting point of 74 to 75 °C. `COc1ccc(C(C)=O)c(OCCCC(=O)O)c1` registered a melting point of 127 to 129 °C.

The compound `COCCNC(=O)c1cccc(-c2cccc3cc(Cc4ccc(Cl)s4)sc23)c1` yielded a melting point of 104 to 105 °C. In turn, `O=C(NCCCCN1CCC(c2ccccc2)CC1)c1ccc2ccccc2c1` registered a melting point of 143 to 144 °C. The figure for `CC1(C)CC(OC(=O)c2cccc(C(=O)OC3CC(C)(C)N(OC4CCCCC4)C(C)(C)C3)c2)CC(C)(C)N1OC1CCCCC1` is 135 to 141 °C. In turn, `COCCOc1cc(N(C)S(=O)(=O)c2cccs2)c2[nH]c(C3=NCC(CC(=O)O)S3)cc2c1` (centres undefined) displayed a melting point of 113 to 114 °C. On to `CS(=O)(=O)c1sccc1S(N)(=O)=O`, for which the melting point was 242 to 244 °C. Turning to `Clc1ncnc(Cl)c1I`, the melting point was in the range of 135 to 136 °C. The figure for `CCOC(=O)c1c(C)nn(-c2ccccc2N)c1C` is 59 to 61 °C; for `Cc1c(O)cc(N2C(=O)c3ccccc3C2=O)cc1C(=O)OCc1ccc([N+](=O)[O-])cc1` it is 210 to 244 °C; for `O=CNCc1ccc2[nH]cc(CCCN3C(=O)c4ccccc4C3=O)c2c1` it is 150 to 152 °C. For the compound `CCOC(=O)c1nc(-c2ccc([N+](=O)[O-])cc2)[nH]c1-c1ccc(OCC)cc1`, the melting point lay in the range of 214 to 217 °C.

On to `N=C(Nc1ccc(Cl)cc1)Nc1ncccc1Cc1ccccc1F`, for which the melting point is 175 to 176 °C. Regarding `CN1C2CCC1CC(c1c[nH]c3cc(F)ccc13)C2` (centres undefined), the melting point fell in the range of 168 to 169 °C.

In the case of `CCc1nnc2ccc(-c3ccccc3)nn12`, the melting point was 133 to 135 °C. As for `c1ccc(CNn2cnnc2-c2ccc(CN3CCCCCC3)s2)cc1`, the figure is 79 to 81 °C. `O=[N+]([O-])c1ccc(-n2ccnc2)cc1Sc1cccc2cnccc12` displayed a melting point of 178 to 188 °C. `CNc1nc(-c2ccc(Cl)c(Cl)c2)cs1` registered a melting point of 220 to 221 °C. `C=C1CC(C(=O)O)NC(C(=O)O)C1` (centres undefined): the melting point is above 250 °C. On to `O=C(NN1CCCCC1)c1nc(-c2ccc(Cl)cc2Cl)c(-c2ccc(Br)cc2)s1`, for which the melting point fell in the range of 171 to 173 °C. The figure for `O=Cc1cccn2cc(-c3ccccc3)nc12` is 96 to 99 °C; for `CCCN1N=C2C(=Cc3ccc(Cl)cc3)CS(=O)(=O)CC2C1c1ccc(Cl)cc1` (centres undefined) it is 208 to 210 °C; for `NC1(Cc2ccc(C(=O)Nc3ccncc3)cc2)C=CC=CC1` (centres undefined) it is 76.8 to 77.6 °C.

In turn, `Cc1nc(C)c(Cl)c(NCc2nccc(SCCCCN3CCNCC3)c2C)n1` displayed a melting point of 143 to 145 °C.

`O=C1CCC(C(=O)OCc2ccc(Cl)cc2)N1` (centres undefined) showed a melting point of 119 to 120 °C. `Cc1ccc(C(=O)Nc2ccc(CN(C)C)c(C(F)(F)F)c2)cc1Br` returned a melting point of 156 to 157 °C. Take `O=C(NCCc1ccccn1)c1cnc2cc3c(cc2c1Cl)OCO3`: the melting point fell in the range of 145 to 146 °C.

As to `CC(=O)Nc1ccc2c(c1)C(=O)N(CCCl)CO2`, the melting point fell in the range of 133 to 135 °C. The figure for `CC12CCC(=O)C=C1CCC1C2CCC2(C)C(C(F)F)CCC12` (centres undefined) is 137 to 140 °C.
